Columns and labels:
[1] = system: F7; test: In vivo F7 knockdown, plasma F7 enzyme activity (BIOPHEN FVII), Balb/c mice; settings: for F7 enzyme activity (Ratio using MC3 as 1): i.v. 0.025 mg siRNA/kg, plasma at 24 hours, relative plasma F7 activity of MC3 LNP as 1; for knockdown activity, compared with MC3: F7siRNA-loaded LNP, versus LNP comprising MC3
How it was run: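 Female Balb/c mice, 5 weeks old, received F7 siRNA lipid nanoparticles i.v. at 0.025 mg siRNA/kg; plasma F7 activity measured chromogenically (BIOPHEN FVII) 24 h later. Values are % of untreated mice, also expressed as a ratio to MC3-containing nanoparticles set at 1.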

[2] = system: liver; test: In vivo Fluc activity of FlucmRNA-loaded LNP by in vivo imaging, liver; settings: Balb/c mice, 6 hours; for Fluc Activity in liver: FlucmRNA-loaded LNP i.v. 0.1 mg mRNA/kg; for Fluc activity in the liver, compared with CL15F6: 0.1 mg mRNA/kg, versus LNP comprising CL15F6 (Table 7)
How it was run: (§1)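 Female Balb/c mice, 7 weeks old, received LNP i.v. at 0.1 mg mRNA/kg. At 6 h, luciferin was given via tail vein at 1.5 mg per mouse, and liver and spleen luminescence was imaged as Avg Radiance [p/s/cm2/sr] near 560 nm.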

[3] = system: spleen; test: In vivo Fluc activity of FlucmRNA-loaded LNP by in vivo imaging, spleen; settings: Balb/c mice, 6 hours; for Fluc Activity in spleen: FlucmRNA-loaded LNP i.v. 0.1 mg mRNA/kg; for Fluc activity in the spleen, compared with CL15F6: 0.1 mg mRNA/kg, versus LNP comprising CL15F6 (Table 7)
How it was run: as §1

[4] = siRNA/mRNA encapsulation rate by Ribogreen reagent (section IV); type: physicochemical; settings: for % siRNA encapsulation: F7siRNA-loaded LNP, 50:10:38.5:1.5, N/P ratio 6; for % mRNA encapsulation: FlucmRNA-loaded LNP, 50:10:38.5:1.5
How it was run: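 LNPs diluted in TE buffer to 8 μg/mL nucleic acid for surface RNA, or to 1.2 μg/mL with 1% Triton X-100 for total RNA. RiboGreen fluorescence (ex 485/em 528 nm) quantified against a Triton-containing standard curve (0-2.5 μg/mL). Encapsulation % = (total − surface)/total × 100.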

[5] = Storage stability of FlucmRNA-loaded LNP at −80, 5, 25 and 40° C.; type: physicochemical; settings: for period for which quality remained good, −80° C.: maximum storage period 1 week; for period for which quality remained good, 5° C. / period for which quality remained good, 25° C. / period for which quality remained good, 40° C. (weeks): maximum storage period 5 weeks
How it was run: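 FlucmRNA-loaded LNPs held at −80, 5, 25 or 40° C; at each time point size, PDI and encapsulation measured. Quality deemed maintained while size stays within ±20 nm of preparation day, PDI ≤0.2 and encapsulation ≥80%; value is the period meeting all three.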

[6] = Average particle size (ζ-Average) and PDI by dynamic light scattering (Zetasizer Nano ZSP); type: physicochemical
How it was run: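 Lipid nanoparticles dispersed in PBS(−) were sized by dynamic light scattering, giving the ζ-Average diameter and polydispersity index (PDI).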

[7] = F7siRNA-loaded LNP, 50:10:38.5:1.5, N/P ratio 6
[8] = FlucmRNA-loaded LNP, 50:10:38.5:1.5
[9] = FlucmRNA-loaded LNP, lipid:DSPC:cholesterol:DMG-PEG2K 50:10:38.5:1.5

Compound	F7 enzyme activity (Ratio using MC3 as 1) [1]	Fluc Activity in liver [2]	Fluc Activity in spleen [3]	% siRNA encapsulation [4]	% mRNA encapsulation [4]	period for which quality remained good, −80° C. [5]	period for which quality remained good, 5° C. [5]	period for which quality remained good, 25° C. [5]	period for which quality remained good, 40° C. (weeks) [5]	PDI [6, 7]	ζ-Average (nm) [6, 7]	PDI [6, 8]	ζ-Average (nm) [6, 9]	Fluc activity in the spleen, compared with CL15F6 [3]	knockdown activity, compared with MC3 [1]	Fluc activity in the liver, compared with CL15F6 [2]
CCCCCCC(CCCCCC)C(=O)OCCCCCCC(O)(CCCCCCOC(=O)C(CCCCCC)CCCCCC)CCCCOC(=O)C1CCN(C)CC1 [CL15F 8-6]	1.60	1.92E+06 Avg Radiance [p/s/cm2/sr]	5.02E+06 Avg Radiance [p/s/cm2/sr]	100.2%	99.2%	1 week	5 weeks	5 weeks	5 weeks	0.056	121.2 nm	0.011	132.00 nm			
CCCCCCCC(CCC)C(=O)OCCCCCCC(O)(CCCCCCOC(=O)C(CCC)CCCCCCC)CCCCOC(=O)C1CCN(C)CC1 (stereo not drawn) [CL15F 9-3]	1.50	1.16E+06 Avg Radiance [p/s/cm2/sr]	7.47E+06 Avg Radiance [p/s/cm2/sr]	98.3%	95.5%	0 week	5 weeks	5 weeks	5 weeks	0.172	200.4 nm	0.044	196.80 nm	higher Fluc activity		
CCCCCCCC(CCCCC)C(=O)OCCCCCCC(O)(CCCCCCOC(=O)C(CCCCC)CCCCCCC)CCCCOC(=O)C1CCN(C)CC1 (stereo not drawn) [CL15F 9-5]	1.11	1.86E+06 Avg Radiance [p/s/cm2/sr]	5.77E+06 Avg Radiance [p/s/cm2/sr]	100.1%	99.1%	1 week	5 weeks	5 weeks	5 weeks	0.035	129.5 nm	0.037	135.00 nm	higher Fluc activity		
CCCCCCCC(CCCCCCC)C(=O)OCCCCCCC(O)(CCCCCCOC(=O)C(CCCCCCC)CCCCCCC)CCCCOC(=O)C1CCN(C)CC1 [CL15F 9-7]	0.60	6.76E+06 Avg Radiance [p/s/cm2/sr]	4.23E+06 Avg Radiance [p/s/cm2/sr]	100.3%	99.5%	1 week	5 weeks	5 weeks	5 weeks	0.023	103.1 nm	0.010	107.60 nm		higher knockdown activity	higher Fluc activity
CCCCCCCCC(CCCC)C(=O)OCCCCCCC(O)(CCCCCCOC(=O)C(CCCC)CCCCCCCC)CCCCOC(=O)C1CCN(C)CC1 (stereo not drawn) [CL15F 10-4]	2.00	2.07E+06 Avg Radiance [p/s/cm2/sr]	3.97E+06 Avg Radiance [p/s/cm2/sr]	100.3%	98.7%	1 week	5 weeks	5 weeks	5 weeks	0.021	126.8 nm	0.030	146.10 nm			
CCCCCCCCC(CCCCC)C(=O)OCCCCCCC(O)(CCCCCCOC(=O)C(CCCCC)CCCCCCCC)CCCCOC(=O)C1CCN(C)CC1 (stereo not drawn) [CL15F 10-5]	1.33	2.70E+06 Avg Radiance [p/s/cm2/sr]	7.55E+06 Avg Radiance [p/s/cm2/sr]	100.5%	99.4%	1 week	5 weeks	5 weeks	5 weeks	0.003	111.7 nm	0.047	113.90 nm	higher Fluc activity		
CCCCCCCCC(CCCCCCCC)C(=O)OCCCCCCC(O)(CCCCCCOC(=O)C(CCCCCCCC)CCCCCCCC)CCCCOC(=O)C1CCN(C)CC1 [CL15F 10-8]	0.52	1.35E+07 Avg Radiance [p/s/cm2/sr]	8.42E+06 Avg Radiance [p/s/cm2/sr]	100.6%	99.78%	1 week	5 weeks	5 weeks	5 weeks	0.041	99.44 nm	0.026	99.84 nm	higher Fluc activity	higher knockdown activity	higher Fluc activity
CCCCCCCCCC(CCCCC)C(=O)OCCCCCCC(O)(CCCCCCOC(=O)C(CCCCC)CCCCCCCCC)CCCCOC(=O)C1CCN(C)CC1 (stereo not drawn) [CL15F 11-5]	0.78	9.38E+06 Avg Radiance [p/s/cm2/sr]	5.01E+06 Avg Radiance [p/s/cm2/sr]	100.3%	99.8%	1 week	5 weeks	5 weeks	5 weeks	0.017	109.6 nm	0.010	108.90 nm		higher knockdown activity	higher Fluc activity

Source: patent US12458605B2, “Lipid nanoparticle” (National University Corporation Hokkaido University, priority 2020, dated 2025)
